Source: PubChem BioAssay (NCI)
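Where inhibition never reached the appropriate level, the endpoint shown equals the highest concentration tested. Otherwise, values were interpolated linearly from a five-concentration, 48-hour dose response in 96-well plates. GI50 marks 50% less growth. Definition used: TGI = concentration required for complete inhibition of growth.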

Experiments:
Experiment in all cases: DTP human tumour cell line panel, 48 h
[1] = system: DU-145 prostate
[2] = system: TK-10 renal
[3] = system: SK-MEL-28 melanoma
[4] = system: LOX IMVI melanoma
[5] = system: HOP-62 NSCLC
[6] = system: SF-268 CNS
[7] = system: SR leukemia
[8] = system: UACC-257 melanoma
[9] = system: CAKI-1 renal
[10] = system: HCT-15 colon
[11] = system: SN12C renal
[12] = system: 786-0 renal
[13] = system: SK-OV-3 ovarian
[14] = system: SW-620 colon
[15] = system: MCF7 breast
[16] = system: MOLT-4 leukemia
[17] = system: MDA-MB-231 breast
[18] = system: SF-295 CNS
[19] = system: RPMI-8226 leukemia
[20] = system: COLO 205 colon
[21] = system: K-562 leukemia
[22] = system: HL-60(TB) leukemia
[23] = system: HT29 colon
[24] = system: HCC-2998 colon
[25] = system: SNB-75 CNS
[26] = system: A549 NSCLC
[27] = system: MALME-3M melanoma
[28] = system: PC-3 prostate
[29] = system: MDA-N
[30] = system: RXF 393 renal
[31] = system: KM12 colon
[32] = system: SK-MEL-5 melanoma
[33] = system: EKVX NSCLC
[34] = system: OVCAR-8 ovarian
[35] = system: NCI-H23 lung
[36] = system: CCRF-CEM leukemia
[37] = system: IGROV1 ovarian
[38] = system: M14 melanoma
[39] = system: T-47D breast
[40] = system: UACC-62 melanoma
[41] = system: SK-MEL-2 melanoma
[42] = system: OVCAR-5 ovarian
[43] = system: HCT-116 colon
[44] = system: SF-539 CNS
[45] = system: ACHN renal
[46] = system: OVCAR-3 ovarian
[47] = system: UO-31 renal
[48] = system: U251 CNS
[49] = system: MDA-MB-435
[50] = system: NCI-H226 lung
[51] = system: SNB-19 CNS
[52] = system: HOP-92 NSCLC
[53] = system: NCI-H522 lung
[54] = system: OVCAR-4 ovarian
[55] = system: NCI-H460 lung
[56] = system: NCI/ADR-RES ovarian
[57] = system: A498 renal
[58] = system: BT-549 breast
[59] = system: HS 578T breast

C=CCc1c(O)c2nsnc2c2nsnc12
TGI [1]: > 10 µM | TGI [2]: > 10 µM | TGI [3]: > 10 µM | TGI [4]: > 10 µM | TGI [5]: > 10 µM | TGI [6]: > 10 µM | TGI [7]: > 10 µM | TGI [8]: > 10 µM | TGI [9]: > 10 µM | TGI [10]: > 10 µM | TGI [11]: > 10 µM | TGI [12]: > 10 µM | TGI [13]: > 10 µM | TGI [14]: > 10 µM | TGI [15]: > 10 µM | TGI [16]: > 10 µM | TGI [17]: > 10 µM | TGI [18]: > 10 µM | TGI [19]: > 10 µM | TGI [20]: > 10 µM | TGI [21]: > 10 µM | TGI [22]: > 10 µM | TGI [23]: > 10 µM | TGI [24]: > 10 µM | TGI [25]: > 10 µM | TGI [26]: > 10 µM | TGI [27]: > 10 µM | TGI [28]: > 10 µM | TGI [29]: > 10 µM | TGI [30]: > 10 µM | TGI [31]: > 10 µM | TGI [32]: > 10 µM | TGI [33]: > 10 µM | TGI [34]: > 10 µM | TGI [35]: > 10 µM | TGI [36]: > 10 µM | TGI [37]: > 10 µM | TGI [38]: > 10 µM | TGI [39]: > 10 µM | TGI [40]: > 10 µM

Cn1cc(-c2cnn3c(N)c(Br)c(C4CCCNC4)nc23)cn1 (stereo unspecified)
GI50 [41]: 17.1 µM | TGI [41]: 63.7 µM | GI50 [1]: 3.2 µM | TGI [1]: 65 µM | GI50 [2]: 3.69 µM | TGI [2]: > 83 µM | GI50 [42]: 6.96 µM | TGI [42]: > 73 µM | GI50 [3]: 24.3 µM | TGI [3]: > 100 µM | GI50 [43]: 6.04 µM | TGI [43]: 24.6 µM | GI50 [4]: 2.71 µM | TGI [4]: 18.9 µM | GI50 [5]: 6.69 µM | TGI [5]: > 100 µM | GI50 [6]: 15.2 µM | TGI [6]: > 100 µM | GI50 [7]: 0.326 µM | TGI [7]: 16.9 µM | GI50 [44]: 0.285 µM | TGI [44]: 3.88 µM | GI50 [45]: 0.417 µM | TGI [45]: > 100 µM | GI50 [46]: 16 µM | TGI [46]: > 88.9 µM | GI50 [47]: 4.63 µM | TGI [47]: > 78.3 µM | GI50 [8]: 17.8 µM | TGI [8]: 60.6 µM | GI50 [48]: 20.2 µM | TGI [48]: > 100 µM | GI50 [49]: 0.754 µM | TGI [49]: > 57.8 µM | GI50 [9]: 5.43 µM | TGI [9]: > 38.5 µM | GI50 [10]: 14.2 µM | TGI [10]: > 79.9 µM | GI50 [11]: 3.86 µM | TGI [11]: 50.6 µM | GI50 [50]: 13.9 µM | TGI [50]: > 96 µM | GI50 [51]: 18.4 µM | TGI [51]: > 100 µM | GI50 [12]: 1.62 µM | TGI [12]: 60.6 µM | GI50 [13]: 4.06 µM | TGI [13]: 66.8 µM | GI50 [14]: 15.7 µM | TGI [14]: > 68.6 µM | GI50 [15]: 13.7 µM | TGI [15]: > 68.6 µM | GI50 [52]: 5.51 µM | TGI [52]: > 68.5 µM | GI50 [16]: 0.575 µM | TGI [16]: 23.2 µM | GI50 [17]: 5.53 µM | TGI [17]: 40 µM | GI50 [18]: 0.527 µM | TGI [18]: > 44.4 µM | GI50 [19]: 4.7 µM | TGI [19]: 27.2 µM | GI50 [20]: 4.54 µM | TGI [20]: 19.8 µM | GI50 [21]: 3.85 µM | TGI [21]: > 100 µM | GI50 [53]: 24.5 µM | TGI [53]: > 100 µM | GI50 [22]: 1.62 µM | TGI [22]: 35.1 µM | GI50 [54]: 14.6 µM | TGI [54]: 96.1 µM | GI50 [23]: 4.19 µM | TGI [23]: > 73 µM | GI50 [55]: 6.54 µM | TGI [55]: 30.7 µM | GI50 [56]: 8.36 µM | TGI [56]: > 100 µM | GI50 [57]: 0.238 µM | TGI [57]: 2 µM | GI50 [24]: 1.02 µM | TGI [24]: > 42.6 µM | GI50 [25]: 0.464 µM | TGI [25]: 39.1 µM | GI50 [26]: 17.3 µM | TGI [26]: > 100 µM | GI50 [27]: 6.11 µM | TGI [27]: 27.1 µM | GI50 [28]: 5.26 µM | TGI [28]: > 86.2 µM | GI50 [30]: 0.257 µM | TGI [30]: 0.799 µM | GI50 [31]: 3.69 µM | TGI [31]: 44.7 µM | GI50 [32]: 3.64 µM | TGI [32]: 18.7 µM | GI50 [33]: 10.4 µM | TGI [33]: 70 µM | GI50 [34]: 5.87 µM | TGI [34]: > 100 µM | GI50 [35]: 0.546 µM | TGI [35]: > 81.6 µM | GI50 [36]: 0.631 µM | TGI [36]: 38.9 µM | GI50 [37]: 6.72 µM | TGI [37]: > 100 µM | GI50 [38]: 0.325 µM | TGI [38]: 16.8 µM | GI50 [58]: 0.922 µM | TGI [58]: 32.5 µM | GI50 [39]: 19.6 µM | TGI [39]: > 100 µM | GI50 [40]: 8.9 µM | TGI [40]: 28.8 µM | GI50 [59]: 4 µM | TGI [59]: > 72.3 µM
